Laboratory results taken from publication PMC1940322, “The Effect of PPARα, PPARδ, PPARγ, and PPARpan Agonists on Body Weight, Body Mass, and Serum Lipid Profiles in Diet-Induced Obese AKR/J Mice” (PPAR Research, 2007).

Assays:
Format in all cases: in vivo
[1] = test system: diet-induced obese (DIO) AKR/J mouse; experiment: Body weight, body composition (qMR) and liver weight in diet-induced obese AKR/J mice; settings: for BW day 0: baseline before treatment; for Fat mass day 28 / Lean mass day 28: qMR; for Liver weight: terminal collection
Procedure: The effects of monotherapy with selective PPAR agonists, combination therapy with PPARα and PPARδ, and treatment with PPARpan agonists were evaluated in four experiments in diet-induced obese (DIO) AKR/J mouse. The AKR/J mouse is a polyoma-susceptible strain originally utilized to study accelerated tumor development. This strain becomes obese and hyperinsulemic when fed a high fat diet. Age-matched, male AKR/J mice were allowed ad libitum access to Research Diet D12331 (Research Diet, Brunswick, NJ) at the Jackson Laboratories (Bar Harbor, ME) beginning at 6 weeks of age. The diet has an energy density of 5.56 kcal/g (58% kcal from fat; 26% kcal from carbohydrates, and 16% kcal from protein). The animals were allowed to become obese, achieving BW >40 grams before shipping to GlaxoSmithKline laboratory animal facility at 13 weeks of age. The mice were housed 4 per cage in standard shoebox cages and were fed the high fat diet until they reached approximately 50 grams. Age-matched lean control animals obtained from Jackson Laboratories were fed a diet of normal chow (3.04 kcal/g energy density, 12% kcal from fat, LabDiet 5001, St. Louis, MO) and used for comparison.
At the beginning of each study, the animals were weighed and body composition obtained using an EchoMRI-100 quantitative magnetic resonance (qMR, EchoMRI, Houston, TX) whole body composition analyzer. […] 16 lean control mice on standard chow were used as reference. All mice were dosed orally with vehicle (0.5% methylcellulose and 0.1% Tween 80, 10 mL/kg) for six days prior to the beginning of dosing for acclimation to handling and treatment before drug treatment was initiated.
(§1) In each experiment, BW of each animal was measured and recorded three times weekly throughout the treatment period. Body mass was obtained weekly on days 0, 7, 13, 20, and 27 of treatment. The effects of selective PPARα, δ, and γ agonists on food consumption were also assessed. Food consumption is expressed as total energy consumed (kcal) over a 24-period and as cumulative consumption over the course of the experiment.
(§2) On the final day of each experiment, a terminal blood sample (800–1000 μL) was obtained via cardiac puncture under isoflurane anesthesia. Whole blood was placed in a Terumo Capiject blood collection tube (Terumo Medical Corp., Elkton, Md, USA), allowed to sit at room temperature for 20 minutes then centrifuged to obtain serum. Serum levels of glucose, triglycerides, glycerol, nonesterified fatty acids, total cholesterol, the high-density lipoprotein cholesterol, and β-hydroxybutyrate were determined in all mice using an Olympus AU640 clinical chemistry immuno-analyzer (Olympus America Inc., Melville, NY, USA). In addition, liver weights were obtained following the terminal blood sample on the final day of the study and samples were used to determine liver fatty acid oxidation activity.
(§3) Experiment 1 was designed to study the effects of a selective PPARα agonist and PPARδ agonist as mono and combination therapy. 48 mice were sorted into 6 groups and blocked such that initial BW and body composition were not different between groups. […] Two additional groups of mice were dosed for the first 14 days with either a PPARα agonist or a PPARδ agonist alone. At day 15, the PPARδ agonist was added to the treatment regimen of animals dosed with PPARα, and the PPARα agonist was added to the dosing material of animals previously dosed with PPARδ alone. The sixth group was dosed with both the PPARα and PPARδ agonists for the entire 28-day period. BW and food consumption were assessed 3 times per week and body composition was measured weekly.
In Experiment 2, 32 mice were sorted into 4 groups (n = 8/group) and dosed with vehicle and a selective PPARγ agonist (GW7845, 3 mg/kg) for 28 days. Rimonabant (RIM, 10 or 30 mg/kg, q.d.), a CB1 receptor antagonist, was used as a positive control for weight loss. […]

[2] = test system: diet-induced obese (DIO) AKR/J mouse; experiment: Food consumption in diet-induced obese AKR/J mice; settings: compared to vehicle-treated animals; doses and regimen as in methods
Procedure: as §1
The fat content of Research Diets D12331 chow results in pellets that crumbles making it difficult to quantify food consumption thus, Research Diets D12451 chow (4.7 kcal/g (45% kcal from fat, 35% kcal from carbohydrates and 20% kcal from protein)) was used in studies where food consumption was determined as these pellets are more solid. The animals were transitioned two weeks before compound dosing from Research Diets D12331 chow to Research Diets D12451 chow. Previous experiments (data not presented) have shown that animals fed this diet maintain the same BW and fat mass level as observed at the time of transition.
as §3
In Experiment 2, 32 mice were sorted into 4 groups (n = 8/group) and dosed with vehicle and a selective PPARγ agonist (GW7845, 3 mg/kg) for 28 days. Rimonabant (RIM, 10 or 30 mg/kg, q.d.), a CB1 receptor antagonist, was used as a positive control for weight loss. As in Experiment 1, BW and food consumption were determined 3 times per week and body composition was measured weekly.

[3] = test system: diet-induced obese (DIO) AKR/J mouse; experiment: Serum clinical chemistry of terminal blood samples, DIO AKR/J mice; settings: serum, end of treatment, 28 days
Procedure: as §2

**Q.** Which results are given for `Cc1c(C(=O)NN2CCCCC2)nn(-c2ccc(Cl)cc2Cl)c1-c1ccc(Cl)cc1` [RIM, Rimonabant, reference compound]?
**A.** BW day 28 ([1]; 10 mg/kg oral, 28 days): 44.1 ± 1.3 grams; BW day 28 ([1]; 30 mg/kg oral, 28 days): 41.8 ± 0.5 grams; effect on FM (in words) ([1]; 28 days, doses as in methods): decreased FM in a dose-dependent manner; BW day 0 ([1]; group dosed 10 mg/kg oral): 50.6 ± 0.8 grams; BW day 0 ([1]; group dosed 30 mg/kg oral): 51.0 ± 0.7 grams; reduction of BW ([1]; highest dose (30 mg/kg), within the first 10 days of treatment): 17%; effect on BW (in words) ([1]; oral, 28 days, GW9578 1, GW0742 30, GW7845 3, RIM 10 and 30 mg/kg, PPARpan agonists): significant, dose-related decreases of BW; Fat mass day 28 ([1]; 10 mg/kg oral, 28 days): 15.0 ± 0.9 grams; Lean mass day 28 ([1]; 10 mg/kg oral, 28 days): 25.2 ± 0.8 grams; Fat mass day 28 ([1]; 30 mg/kg oral, 28 days): 11.6 ± 0.3 grams; Lean mass day 28 ([1]; 30 mg/kg oral, 28 days): 26.5 ± 0.5 grams; Liver weight ([1]; 10 mg/kg oral, 28 days): 2.0 ± 0.1 grams; Liver weight ([1]; 30 mg/kg oral, 28 days): 2.0 ± 0.1 grams; effect on food consumption (in words) [2]: dose-related decreases in food consumption; Cholesterol ([3]; 10 mg/kg oral): 147.3 ± 9.1 mg/dL; Glucose ([3]; 10 mg/kg oral): 230.1 ± 16.6 mg/dL; HDL-C ([3]; 10 mg/kg oral): 95.1 ± 4.6 mg/dL; Insulin ([3]; 10 mg/kg oral): 7.2 ± 2.5 ng/mL; NEFA ([3]; 10 mg/kg oral): 0.8 ± 0.05 mEq/L; Triglyceride ([3]; 10 mg/kg oral): 181.4 ± 36.1 mg/dL; bHBA ([3]; 10 mg/kg oral): 2.5 ± 0.2 mg/dL; Cholesterol ([3]; 30 mg/kg oral): 143.4 ± 4.0 mg/dL; Glucose ([3]; 30 mg/kg oral): 215.3 ± 13.0 mg/dL; HDL-C ([3]; 30 mg/kg oral): 116.9 ± 2.6 mg/dL; Insulin ([3]; 30 mg/kg oral): 3.4 ± 0.7 ng/mL; NEFA ([3]; 30 mg/kg oral): 0.9 ± 0.02 mEq/L; Triglyceride ([3]; 30 mg/kg oral): 159.7 ± 16.1 mg/dL; bHBA ([3]; 30 mg/kg oral): 1.8 ± 0.2 mg/dL
